Reference: ChEMBL document CHEMBL3132769, “Fragment growing to retain or alter the selectivity of anchored kinase hinge-binding fragments” (Medchemcomm, 2014)

Experiments:
[1] = tested on: Tyrosine-protein kinase ABL1 (Homo sapiens), P00519 [T315I]; assay: Inhibition of human truncated ABL T315I mutant expressed in baculovirus assessed as substrate phosphorylation using fluorescence-labelled peptides as substrate at 0.2 uM after 90 mins by microfluidic peptide phosphorylation assay
[2] = target: T1, cGMP-dependent protein kinase 1 (Homo sapiens) (UniProt Q13976); assay: Inhibition of human full length PKG-1beta expressed in baculovirus assessed as substrate phosphorylation using fluorescence-labelled peptides as substrate at 420 uM after 90 mins by microfluidic peptide phosphorylation assay
T1 sequence (whole entry): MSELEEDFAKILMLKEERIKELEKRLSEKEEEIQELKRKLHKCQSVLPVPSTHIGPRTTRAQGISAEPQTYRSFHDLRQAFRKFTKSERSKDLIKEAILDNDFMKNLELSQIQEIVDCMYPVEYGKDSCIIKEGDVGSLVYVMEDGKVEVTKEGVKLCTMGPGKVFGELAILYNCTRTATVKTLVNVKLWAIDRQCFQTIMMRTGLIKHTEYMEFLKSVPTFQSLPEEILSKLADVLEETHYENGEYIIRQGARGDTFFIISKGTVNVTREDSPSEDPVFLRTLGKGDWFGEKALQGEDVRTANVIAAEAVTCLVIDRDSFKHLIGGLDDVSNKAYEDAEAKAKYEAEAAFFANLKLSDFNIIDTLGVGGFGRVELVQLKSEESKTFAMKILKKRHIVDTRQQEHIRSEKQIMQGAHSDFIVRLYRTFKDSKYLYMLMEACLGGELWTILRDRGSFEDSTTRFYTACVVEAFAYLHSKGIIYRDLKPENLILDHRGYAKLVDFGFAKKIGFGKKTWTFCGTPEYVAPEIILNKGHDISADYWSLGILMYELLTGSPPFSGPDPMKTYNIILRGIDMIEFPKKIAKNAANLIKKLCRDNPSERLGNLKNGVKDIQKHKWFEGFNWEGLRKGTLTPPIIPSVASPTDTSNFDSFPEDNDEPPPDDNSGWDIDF

[3] = target: T1, cGMP-dependent protein kinase 1 (Homo sapiens); assay: Inhibition of human full length PKG-1a expressed in baculovirus assessed as substrate phosphorylation using fluorescence-labelled peptides as substrate at 9 uM after 90 mins by microfluidic peptide phosphorylation assay
[4] = target: Platelet-derived growth factor receptor alpha (Homo sapiens) (UniProt P16234); assay: Inhibition of human PDGFR alpha catalytic domain expressed in baculovirus assessed as substrate phosphorylation using fluorescence-labelled peptides as substrate at 0.1 uM after 90 mins by microfluidic peptide phosphorylation assay
Sequence of Platelet-derived growth factor receptor alpha (Homo sapiens) (P16234 whole entry, the tested form may be a part): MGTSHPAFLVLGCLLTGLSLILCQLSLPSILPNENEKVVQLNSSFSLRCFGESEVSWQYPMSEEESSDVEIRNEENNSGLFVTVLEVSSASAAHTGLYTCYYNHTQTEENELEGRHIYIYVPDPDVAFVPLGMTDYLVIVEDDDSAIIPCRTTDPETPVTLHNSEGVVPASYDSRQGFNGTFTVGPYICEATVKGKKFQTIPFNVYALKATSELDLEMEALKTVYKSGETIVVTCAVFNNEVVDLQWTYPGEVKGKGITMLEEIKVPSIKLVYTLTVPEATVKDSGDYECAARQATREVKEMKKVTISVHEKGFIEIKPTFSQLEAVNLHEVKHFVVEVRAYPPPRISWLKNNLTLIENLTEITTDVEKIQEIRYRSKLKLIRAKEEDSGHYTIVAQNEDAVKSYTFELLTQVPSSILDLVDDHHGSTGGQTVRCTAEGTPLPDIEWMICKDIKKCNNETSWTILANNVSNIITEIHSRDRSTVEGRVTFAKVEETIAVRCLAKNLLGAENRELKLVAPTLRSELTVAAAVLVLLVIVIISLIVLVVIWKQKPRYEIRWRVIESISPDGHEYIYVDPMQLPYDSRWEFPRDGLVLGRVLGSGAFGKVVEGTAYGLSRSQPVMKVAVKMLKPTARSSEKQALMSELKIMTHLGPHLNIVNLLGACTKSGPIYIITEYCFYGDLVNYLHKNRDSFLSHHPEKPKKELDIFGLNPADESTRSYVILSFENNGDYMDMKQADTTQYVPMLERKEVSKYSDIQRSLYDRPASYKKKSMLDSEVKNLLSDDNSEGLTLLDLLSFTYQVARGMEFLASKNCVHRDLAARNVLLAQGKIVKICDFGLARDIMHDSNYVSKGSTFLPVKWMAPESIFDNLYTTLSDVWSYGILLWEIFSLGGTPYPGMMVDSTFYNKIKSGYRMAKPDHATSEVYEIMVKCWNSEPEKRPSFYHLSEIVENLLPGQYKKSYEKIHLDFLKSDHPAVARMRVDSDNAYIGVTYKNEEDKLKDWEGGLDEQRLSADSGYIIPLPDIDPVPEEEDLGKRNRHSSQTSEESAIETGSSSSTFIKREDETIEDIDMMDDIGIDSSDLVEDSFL

[5] = target: T2, Aurora kinase C (Homo sapiens) (UniProt Q9UQB9); assay: Inhibition of human full length AurC expressed in baculovirus assessed as substrate phosphorylation using fluorescence-labelled peptides as substrate at 0.06 uM after 90 mins by microfluidic peptide phosphorylation assay
T2 sequence (whole entry): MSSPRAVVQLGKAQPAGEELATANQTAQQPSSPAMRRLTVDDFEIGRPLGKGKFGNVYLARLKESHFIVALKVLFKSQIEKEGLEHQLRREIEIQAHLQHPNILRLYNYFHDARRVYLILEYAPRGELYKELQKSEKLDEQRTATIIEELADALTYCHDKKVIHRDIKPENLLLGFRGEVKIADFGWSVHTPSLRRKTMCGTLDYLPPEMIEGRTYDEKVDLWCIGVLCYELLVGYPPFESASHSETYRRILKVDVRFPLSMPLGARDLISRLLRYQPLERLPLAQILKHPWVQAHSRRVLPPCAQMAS

[6] = target: T3, Interleukin-1 receptor-associated kinase 4 (Homo sapiens) (UniProt Q9NWZ3); assay: Inhibition of human IRAK4 catalytic domain expressed in baculovirus assessed as substrate phosphorylation using fluorescence-labelled peptides as substrate at 0.06 uM after 90 mins by microfluidic peptide phosphorylation assay
T3 sequence (whole entry): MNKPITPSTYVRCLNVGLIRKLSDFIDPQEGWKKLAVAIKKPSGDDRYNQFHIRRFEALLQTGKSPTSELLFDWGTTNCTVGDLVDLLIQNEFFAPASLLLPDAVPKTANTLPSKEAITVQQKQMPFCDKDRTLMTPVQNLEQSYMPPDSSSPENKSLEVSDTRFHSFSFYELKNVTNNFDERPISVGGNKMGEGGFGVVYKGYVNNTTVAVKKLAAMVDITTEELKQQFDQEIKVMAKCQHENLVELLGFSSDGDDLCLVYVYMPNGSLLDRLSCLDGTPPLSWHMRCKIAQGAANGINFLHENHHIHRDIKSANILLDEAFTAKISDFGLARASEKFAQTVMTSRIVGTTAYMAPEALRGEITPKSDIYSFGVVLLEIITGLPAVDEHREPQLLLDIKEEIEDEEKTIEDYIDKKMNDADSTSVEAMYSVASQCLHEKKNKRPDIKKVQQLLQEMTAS

[7] = target: Fibroblast growth factor receptor 2 (Homo sapiens) (UniProt P21802); assay: Inhibition of human FGFR2 catalytic domain expressed in baculovirus assessed as substrate phosphorylation using fluorescence-labelled peptides as substrate at 0.06 uM after 90 mins by microfluidic peptide phosphorylation assay
[8] = target: Serine/threonine-protein kinase Chk2 (Homo sapiens) (UniProt O96017); assay: Inhibition of human full length CHK2 expressed in baculovirus assessed as substrate phosphorylation using fluorescence-labelled peptides as substrate at 0.06 uM after 90 mins by microfluidic peptide phosphorylation assay
Sequence of Serine/threonine-protein kinase Chk2 (Homo sapiens) (O96017 whole entry, the tested form may be a part): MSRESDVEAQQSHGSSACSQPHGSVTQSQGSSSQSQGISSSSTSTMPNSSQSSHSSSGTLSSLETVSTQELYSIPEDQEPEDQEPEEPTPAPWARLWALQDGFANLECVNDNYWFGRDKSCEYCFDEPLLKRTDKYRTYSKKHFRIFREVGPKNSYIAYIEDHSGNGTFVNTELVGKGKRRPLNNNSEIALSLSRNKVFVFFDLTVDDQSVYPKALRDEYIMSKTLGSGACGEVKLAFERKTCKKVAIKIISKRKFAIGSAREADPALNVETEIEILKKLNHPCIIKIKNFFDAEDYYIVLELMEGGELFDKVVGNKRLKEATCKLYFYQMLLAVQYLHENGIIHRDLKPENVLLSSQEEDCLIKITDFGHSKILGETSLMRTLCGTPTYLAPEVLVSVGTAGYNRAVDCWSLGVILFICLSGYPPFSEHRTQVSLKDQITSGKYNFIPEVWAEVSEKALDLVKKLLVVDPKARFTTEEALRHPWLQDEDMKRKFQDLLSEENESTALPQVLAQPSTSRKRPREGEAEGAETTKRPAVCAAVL

[9] = tested on: Tyrosine-protein kinase ABL1 (Homo sapiens), P00519 [Q252H]; assay: Inhibition of human truncated ABL Q252H mutant expressed in baculovirus assessed as substrate phosphorylation using fluorescence-labelled peptides as substrate at 8 uM after 90 mins by microfluidic peptide phosphorylation assay
[10] = target: Calcium/calmodulin-dependent protein kinase type II subunit gamma (Homo sapiens) (UniProt Q13555); assay: Inhibition of human CAMK2 gamma catalytic domain expressed in baculovirus assessed as substrate phosphorylation using fluorescence-labelled peptides as substrate at 8 uM after 90 mins by microfluidic peptide phosphorylation assay
Sequence of Calcium/calmodulin-dependent protein kinase type II subunit gamma (Homo sapiens) (Q13555 whole entry, the tested form may be a part): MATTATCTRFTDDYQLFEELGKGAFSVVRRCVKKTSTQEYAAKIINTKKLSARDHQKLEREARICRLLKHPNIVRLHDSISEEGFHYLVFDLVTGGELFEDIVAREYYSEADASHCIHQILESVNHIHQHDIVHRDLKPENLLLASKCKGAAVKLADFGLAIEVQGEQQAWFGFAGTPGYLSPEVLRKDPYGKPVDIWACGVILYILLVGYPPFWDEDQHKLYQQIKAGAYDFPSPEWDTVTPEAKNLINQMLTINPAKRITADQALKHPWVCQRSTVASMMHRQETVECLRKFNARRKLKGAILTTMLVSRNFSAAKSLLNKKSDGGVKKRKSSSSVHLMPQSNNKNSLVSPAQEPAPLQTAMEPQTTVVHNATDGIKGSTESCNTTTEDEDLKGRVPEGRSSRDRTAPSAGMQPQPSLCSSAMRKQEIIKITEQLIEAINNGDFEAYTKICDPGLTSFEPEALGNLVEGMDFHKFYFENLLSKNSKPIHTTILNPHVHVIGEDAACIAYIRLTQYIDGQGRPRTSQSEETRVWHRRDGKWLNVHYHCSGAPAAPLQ

[11] = target: MAP/microtubule affinity-regulating kinase 3 (Homo sapiens) (UniProt P27448); assay: Inhibition of human full length c-TAK1 expressed in Escherichia coli cell assessed as substrate phosphorylation using fluorescence-labelled peptides as substrate at 70 uM after 90 mins by microfluidic peptide phosphorylation assay
Sequence of MAP/microtubule affinity-regulating kinase 3 (Homo sapiens) (P27448 whole entry, looked up): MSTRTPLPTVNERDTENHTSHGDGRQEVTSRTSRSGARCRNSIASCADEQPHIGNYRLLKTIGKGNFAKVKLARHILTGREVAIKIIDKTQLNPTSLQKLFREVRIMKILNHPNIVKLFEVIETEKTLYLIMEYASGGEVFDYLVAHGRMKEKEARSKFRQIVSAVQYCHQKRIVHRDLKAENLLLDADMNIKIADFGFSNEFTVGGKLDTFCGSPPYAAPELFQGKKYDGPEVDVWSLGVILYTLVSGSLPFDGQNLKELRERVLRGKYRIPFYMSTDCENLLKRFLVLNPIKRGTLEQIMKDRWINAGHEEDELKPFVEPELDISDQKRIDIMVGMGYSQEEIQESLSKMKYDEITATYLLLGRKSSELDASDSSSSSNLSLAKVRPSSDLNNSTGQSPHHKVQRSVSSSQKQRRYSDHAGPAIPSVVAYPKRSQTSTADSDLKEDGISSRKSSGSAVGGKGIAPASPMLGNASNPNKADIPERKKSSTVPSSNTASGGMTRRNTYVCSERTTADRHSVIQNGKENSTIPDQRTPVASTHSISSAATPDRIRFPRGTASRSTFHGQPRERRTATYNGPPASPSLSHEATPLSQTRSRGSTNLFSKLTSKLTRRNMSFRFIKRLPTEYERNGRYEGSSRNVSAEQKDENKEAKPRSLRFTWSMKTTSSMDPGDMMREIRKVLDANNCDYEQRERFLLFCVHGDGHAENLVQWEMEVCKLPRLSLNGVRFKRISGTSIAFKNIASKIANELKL

[12] = target: MAP kinase p38 (Homo sapiens) (UniProt O15264+Q15759+Q16539+P53778); assay: Inhibition of human full length p38 beta2 expressed in Escherichia coli cell assessed as substrate phosphorylation using fluorescence-labelled peptides as substrate at 1000 uM after 90 mins by microfluidic peptide phosphorylation assay
[13] = target: Epidermal growth factor receptor (Homo sapiens) (UniProt P00533); assay: Inhibition of human EGFR catalytic domain expressed in baculovirus assessed as substrate phosphorylation using fluorescence-labelled peptides as substrate at 1000 uM after 90 mins by microfluidic peptide phosphorylation assay
Sequence of Epidermal growth factor receptor (Homo sapiens) (P00533 whole entry, the tested form may be a part): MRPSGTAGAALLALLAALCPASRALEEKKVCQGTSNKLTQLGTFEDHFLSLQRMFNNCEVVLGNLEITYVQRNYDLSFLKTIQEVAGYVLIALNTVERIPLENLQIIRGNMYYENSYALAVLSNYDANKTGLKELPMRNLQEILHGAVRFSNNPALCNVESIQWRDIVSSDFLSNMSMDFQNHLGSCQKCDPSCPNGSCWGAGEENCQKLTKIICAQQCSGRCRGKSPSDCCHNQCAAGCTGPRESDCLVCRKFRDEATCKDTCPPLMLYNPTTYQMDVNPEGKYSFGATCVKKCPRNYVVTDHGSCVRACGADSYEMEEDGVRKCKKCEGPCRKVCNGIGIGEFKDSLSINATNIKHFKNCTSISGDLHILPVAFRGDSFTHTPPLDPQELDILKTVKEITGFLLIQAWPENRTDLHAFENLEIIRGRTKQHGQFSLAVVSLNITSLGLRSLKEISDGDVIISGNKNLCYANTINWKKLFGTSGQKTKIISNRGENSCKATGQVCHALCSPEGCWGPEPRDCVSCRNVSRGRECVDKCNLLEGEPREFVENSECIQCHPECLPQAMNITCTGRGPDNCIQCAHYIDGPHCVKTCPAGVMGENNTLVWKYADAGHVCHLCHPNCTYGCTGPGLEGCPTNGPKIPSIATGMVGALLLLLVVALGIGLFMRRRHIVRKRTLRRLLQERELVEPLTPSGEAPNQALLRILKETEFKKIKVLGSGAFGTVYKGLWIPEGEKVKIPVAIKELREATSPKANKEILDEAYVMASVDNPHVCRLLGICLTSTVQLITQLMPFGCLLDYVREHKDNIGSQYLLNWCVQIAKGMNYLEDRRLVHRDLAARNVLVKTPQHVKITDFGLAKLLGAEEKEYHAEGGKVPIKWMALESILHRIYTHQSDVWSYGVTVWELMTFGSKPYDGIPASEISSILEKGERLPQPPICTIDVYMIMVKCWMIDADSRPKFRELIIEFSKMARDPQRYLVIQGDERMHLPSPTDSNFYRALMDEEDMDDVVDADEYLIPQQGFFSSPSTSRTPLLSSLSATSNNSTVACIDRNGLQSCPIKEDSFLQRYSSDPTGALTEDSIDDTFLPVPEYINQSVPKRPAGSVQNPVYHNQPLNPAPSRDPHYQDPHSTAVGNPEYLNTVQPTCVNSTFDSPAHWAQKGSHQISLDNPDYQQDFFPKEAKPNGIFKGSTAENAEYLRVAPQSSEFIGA

[14] = target: Mitogen-activated protein kinase 1 (Homo sapiens) (UniProt P28482); assay: Inhibition of human full length ERK2 expressed in Escherichia coli cell assessed as substrate phosphorylation using fluorescence-labelled peptides as substrate at 1000 uM after 90 mins by microfluidic peptide phosphorylation assay
Sequence of Mitogen-activated protein kinase 1 (Homo sapiens) (P28482 whole entry): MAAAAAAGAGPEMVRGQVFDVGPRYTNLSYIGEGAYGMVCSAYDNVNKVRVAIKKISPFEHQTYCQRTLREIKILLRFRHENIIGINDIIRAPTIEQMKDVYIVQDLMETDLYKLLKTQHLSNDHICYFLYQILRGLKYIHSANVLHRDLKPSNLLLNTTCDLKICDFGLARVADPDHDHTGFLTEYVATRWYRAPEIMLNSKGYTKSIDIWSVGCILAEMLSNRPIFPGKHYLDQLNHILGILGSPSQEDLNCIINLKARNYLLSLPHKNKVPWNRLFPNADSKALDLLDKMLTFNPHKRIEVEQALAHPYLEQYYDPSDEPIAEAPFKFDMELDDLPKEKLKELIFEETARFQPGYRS

Clc1ccc(C2(c3ccc(-c4ncnc5[nH]cnc45)cc3)CCNCC2)cc1
inhibition [1]: 0%

c1nc(N2CCOCC2)c2nc[nH]c2n1
inhibition [2]: 95.5%

NCC1CN(c2ncnc3[nH]c4cnccc4c23)CCO1 (centres undefined)
inhibition [3]: 15.5%

C[C@H](CN(C)C)Oc1nc(Nc2cc3cccc(Cl)c3cn2)cnc1C#N
inhibition [4]: 8.5%

NC1(Cc2ccc(Cl)cc2)CCN(c2ncnc3[nH]ccc23)CC1
inhibition [5]: 0% | inhibition [6]: 0% | inhibition [7]: 0% | inhibition [8]: 0%

NCC1CCN(c2ncnc3[nH]ccc23)CC1
inhibition [9]: 87.5% | inhibition [10]: 20.5%

CNCc1ccc(-c2ncnc3[nH]cnc23)cc1
inhibition [11]: 6.5%

c1cnc2[nH]ccc2c1
inhibition [12]: 0% | inhibition [13]: 13.5% | inhibition [14]: 23.5%
